Measurements: a melting point compilation (Tetko et al.; mined from patent text by program, amines drawn as free bases though some values may be those of a salt)

With `NS(=O)(=O)c1ccc(NC(=O)CNC2CCCCC2)c(Cl)c1` the melting point was 213 to 215 °C.
`COc1ccc(/C(=C\C=C\C(=O)Oc2ccc([N+](=O)[O-])cc2)c2cccnc2)cc1` gave a melting point of 54 to 56 °C.
In the case of `O=C1N=C(N2CCOCC2)SC1c1cccc(-c2ccc(O)c(-c3ccccc3)c2)n1` (stereo unspecified), the melting point is reported as 292 to 295 °C.
In the case of `CCCCc1nn(-c2cc(NC(=O)CCC)ccc2Cl)c(=O)n1Cc1ccc(-c2ccccc2S(=O)(=O)NC(=O)c2ccccc2Cl)cc1`, the melting point is reported as > 130 °C.
In the case of `CCOC(=O)c1[nH]c(C)c2c1CCC2`, the melting point is reported as 166 to 167 °C.
`CCOC(=O)/C(=C/c1ccccc1)OC(C)=O` gave a melting point of 41 to 47 °C.
For `COc1ccc2c(c1)CC(C)C1C2CCC2(C)C(=O)CCC12` (stereo unspecified), the melting point was 167 to 170 °C.
`Cc1ccc(-c2c(Cl)ccc3c2C=C(C(=O)O)C(C(F)(F)F)O3)cc1` (stereo unspecified) showed a melting point of 218 to 220 °C.
In the case of `N#Cc1cnc2sc(-c3ccccc3)cc2c1NCc1ccc2[nH]ccc2c1`, the melting point is reported as 219 to 221 °C.
Work on `O=C(Nc1ccccc1N1CCc2ccccc21)C1CCCCC1` yielded a melting point of 87 to 89 °C.
`COc1cc2cc(-c3cc4cc(OC)c(OC)c(C(C)C)c4cc3C)c(C)cc2c(C(C)C)c1OC` gave a melting point of 215 to 216 °C.
For `N#CCOc1ccc2cc(-c3cc4ccccc4s3)ccc2c1Br`, the melting point was 179 to 181 °C.
For `CC(=O)Nc1ccc(NC(=O)CN2CCC(Cc3ccc(F)cc3)CC2)cc1`, the melting point was 173 to 180 °C.
For `CC(C)(C)NCC(O)COc1cccc2c1CNC(=O)N2` (stereo unspecified), the melting point was 204 to 205 °C.
In the case of `Cc1ccc(CNc2ccc3c(C#N)cccc3n2)o1`, the melting point is reported as 102 °C.
With `NC(=O)NC(=O)NCc1ccc(CNC(=O)[C@@H](CCCNC(N)=N[N+](=O)[O-])NC(=O)C(c2ccccc2)c2ccccc2)cc1` the melting point was 214 to 218 °C.
With `COC(=O)c1c(OC)c(OC)c2oc(C)cc(=O)c2c1OC` the melting point was 125 °C.
With `O=C1[C@H]2C[C@H](F)CN2C(=O)N1c1cc(NS(=O)(=O)CCl)c(Cl)cc1F` the melting point was 147 to 151 °C.
Compound `COC(=O)c1ccc(COc2ccc3cc(-c4ccc(-c5ccccc5)n4Cc4ccc(C(F)(F)F)cc4)ccc3c2)c(C(=O)OC)c1` has a melting point of 172 to 174 °C.
With `COC(=O)c1nc(N(C)C)ccc1OCc1ccccc1` the melting point was 71.5 to 73 °C.
Work on `CNC1(c2cccc(NC(=O)c3cc(OC)c(OC)c(OC)c3)c2)NC=Nc2cc(OC)c(OC)cc21` (stereo unspecified) yielded a melting point of 122 to 124 °C.
With `N#Cc1c(Cl)ccc2[nH]c(Sc3cccc4c(=O)cc[nH]c34)nc12` the melting point was 376 °C.
With `Cn1nc(-c2ccc(Cl)cc2)c2c(=O)n3c(nc21)SCC3` the melting point was 256 to 257 °C.
For `COC(=O)C(=O)c1ccc(OCCSc2ccc3ccccc3c2)cc1`, the melting point was 63 to 65 °C.
Compound `CCCc1nc(C)cn1-c1cc(F)ccc1[N+](=O)[O-]` has a melting point of 36 to 39 °C.
For `O=C1C[C@@H]2O[C@@H](CSc3ccccc3)CN12` (racemic), the melting point was 35.5 to 37 °C.
For `COC12CC(CCOC(=O)c3[nH]c(C)cc3C)CN(C)C1Cc1cn(C)c3cccc2c13` (stereo unspecified), the melting point was 152 to 153 °C.
`CC(C)(CCOc1ccc(Cl)cc1Cl)C(=O)Cn1cncn1` showed a melting point of 62 °C.
`Oc1cc2ccccn2n1` gave a melting point of 127 to 128 °C.
In the case of `NC1=Nc2ccccc2Cn2cccc21`, the melting point is reported as 179 to 181 °C.
`CCCN(CCCN1CCc2cc(OC)c(OC)cc2CC1=O)CCc1ccc(OC)c(OC)c1` gave a melting point of 56 to 70 °C.
Compound `O=C(N[C@H](Cc1ccc(C(F)(F)F)cc1)[C@@H](O)c1ccccc1)c1ccc(F)c2ccccc12` (racemic) has a melting point of 217 to 218 °C.
`Cc1c(Br)c[nH]c1C=O` showed a melting point of 140 to 143 °C.
`O=c1c(C2=Nc3ccccc3S(=O)(=O)N2)c(O)c2ccccc2n1CCCC(F)(F)F` gave a melting point of 249 to 250 °C.
`CC(C)(C)NCC(O)c1cc(Cl)c(N)c(C#N)c1` (stereo unspecified) showed a melting point of 125 to 133 °C.
Compound `CCCCc1ccc(-c2ccc(OCC(C)CC)nn2)cc1` (stereo unspecified) has a melting point of 94 °C.
With `N=C(N)c1cc2cc(F)c(F)cc2o1` the melting point was 178 °C.
Compound `Cc1ccc(O)c(-c2cc3ccccn3n2)c1` has a melting point of 108 °C.
Compound `O=C1NCCN(Cc2cc(=O)c(OCc3ccccc3)cn2Cc2ccccc2)C1=O` has a melting point of 260 to 265 °C.
With `CCCN(Cc1csc(C(C)C)n1)C(=O)N[C@H](C(=O)N[C@@H](Cc1ccccc1)C[C@H](O)[C@H](Cc1ccccc1)NC(=O)OCc1cncs1)C(C)C` the melting point was 62 to 64 °C.
For `COc1ccc2c(c1Cl)Sc1ccccc1N2C`, the melting point was 136 °C.
For `CCCCCCCCCCCCCCC(NC(C)=O)(C(=O)OCC)C(=O)OCC`, the melting point was 58.5 to 60.5 °C.
Compound `O=C(CO)c1c[nH]c2cc(OCc3ccccc3)ccc12` has a melting point of 194 to 195 °C.
With `CC(C)(C)OC(=O)Nc1ccc(-c2ccc(-c3ccccc3)cc2)cc1N` the melting point was 206 to 207 °C.
`CCOC(=O)CC(=O)c1ccc(-c2ccc(Cl)cc2)cc1` gave a melting point of 45 to 50 °C.
`CC(C)N1CCN(S(=O)(=O)c2cccc(NC(=O)Nc3ccc(C(F)(F)F)cc3)c2)CC1` showed a melting point of 117 to 122 °C.
With `O=c1c2cnccc2[nH]c2ccnn12` the melting point was > 300 °C.
With `CN1C(=O)c2cscc2N(C(=O)Cc2ccccc2)c2ccccc21` the melting point was 210 to 212 °C.
For `Cc1cc(CO)c(C(=O)O)c(S)n1`, the melting point was > 270 °C.
With `COc1ccc(CNS(=O)(=O)c2ccc(C(CC3CCCC3)C(=O)Nc3nc4ccc(OC)nc4s3)cc2)cc1` (stereo unspecified) the melting point was 170 to 172 °C.
With `CC1(C)CC(c2ccc(F)cc2)=C(c2ccc(S(N)(=O)=O)cc2)C1` the melting point was 117 to 118 °C.
